Data reported in publication PMC12123727 (BMC Cancer, 2025).
Read-outs that look alike come from different tables or passages of the source.

Legend:
[1] = Phase 1 plasma pharmacokinetics; format: in vivo, human; conditions: for increase of exposure (plasma concentration) with dose: dose range 40–80 mg BID; for AUC(0-t) / AUC(0-inf) / Cmax / half-life / Tmax / MRT last: human, plasma; for AUC(0-t): AUC0-t; for AUC(0-t) / AUC(0-inf) / Cmax: Mean ± SD; for AUC(0-inf): AUC0-∞; for half-life: T1/2, Median; for Tmax: Median; for MRT last: po
advanced solid tumor = conditions: combined with pazopanib, follow-up, cited from earlier work
[2] = tested on: Relapsed/Refractory Lymphoma; conditions: cited from earlier work
[3] = C1D7 compared to C1D1, 40–80 mg BID
[4] = oral, 40 mg, abexinostat continuous administration (BID, 4-h interval) on C1D1, 40 mg (n = 4)
[5] = oral, 40 mg, abexinostat continuous administration (BID, 4-h interval) on C1D7, 40 mg (n = 4)
[6] = oral, 60 mg, abexinostat continuous administration (BID, 4-h interval) on C1D1, 60 mg (n = 3)
[7] = oral, 60 mg, abexinostat continuous administration (BID, 4-h interval) on C1D7, 60 mg (n = 3)
[8] = oral, 80 mg, abexinostat continuous administration (BID, 4-h interval) on C1D1, 80 mg (n = 4)
[9] = oral, 80 mg, abexinostat continuous administration (BID, 4-h interval) on C1D7, 80 mg (n = 4)
[10] = PCYC-0403, r/r FL patients (n = 14)

With `CN(C)Cc1c(C(=O)NCCOc2ccc(C(=O)NO)cc2)oc2ccccc12` [abexinostat, Abexinostat] the “average accumulation ratio for Cmax (RA-Cmax)” value [1, 3] was 0.94–1.48, the “average accumulation ratio for the AUC (RA-AUC)” value [1, 3] was 1.16–1.52 and the “increase of exposure (plasma concentration) with dose” value [1] was “approximately dose-proportional”. The “increase of exposure (plasma concentration) with dose” value ([1]; listed as Abexinostat) was “dose-proportional”, the AUC(0-t) [1, 4] was 339 ± 90.9 ng·h/mL and the AUC(0-t) [1, 5] was 463 ± 32.5 ng·h/mL. The AUC(0-inf) [1, 4] was 361 ± 88.3 ng·h/mL, the AUC(0-inf) [1, 5] was 491 ± 43.7 ng·h/mL and the Cmax [1, 4] was 98.1 ± 27.6 ng/mL. For the same molecule, the Cmax [1, 5] was 107 ± 16.3 ng/mL, the half-life [1, 4] was 3.69 h and the half-life [1, 5] was 4.84 h. It also gave a Tmax [1, 4] of 1 h, a Tmax [1, 5] of 1 h and an AUC(0-t) [1, 6] of 521 ± 60.6 ng·h/mL. For the same molecule, the AUC(0-t) [1, 7] was 600 ± 53.8 ng·h/mL, the AUC(0-inf) [1, 6] was 563 ± 69.6 ng·h/mL and the AUC(0-inf) [1, 7] was 656 ± 72 ng·h/mL. The Cmax [1, 6] was 115 ± 24.2 ng/mL, the Cmax [1, 7] was 104 ± 26.9 ng/mL and the half-life [1, 6] was 6.28 h. For the same molecule, the half-life [1, 7] was 6.53 h, the Tmax ([1]; oral, 60 mg, abexinostat continuous administration (BID, 4-h interval) on C1D1, 60 mg (n = 3), abexinostat value footnoted: 0.5 h after second dose) was 4.55 h and the Tmax [1, 7] was 0.48 h. It also gave an AUC(0-t) [1, 8] of 603 ± 104 ng·h/mL, an AUC(0-t) [1, 9] of 767 ± 140 ng·h/mL and an AUC(0-inf) [1, 8] of 625 ± 116 ng·h/mL. The AUC(0-inf) [1, 9] was 744 ± 132 ng·h/mL, the Cmax [1, 8] was 128 ± 25.3 ng/mL and the Cmax [1, 9] was 184 ± 27 ng/mL. The half-life [1, 8] was 5.13 h, the half-life [1, 9] was 5.03 h and the Tmax ([1]; oral, 80 mg, abexinostat continuous administration (BID, 4-h interval) on C1D1, 80 mg (n = 4), abexinostat value footnoted: 0.97 h after second dose) was 4.78 h. For the same molecule, the Tmax [1, 9] was 2.74 h, the MRT last ([1]; 40 mg) was 2.8 h and the MRT last ([1]; 60 mg) was 6.97 h. For the same molecule, the MRT last ([1]; 80 mg) was 3.47 h, the accumulation ([1]; on C1D7) was “slight accumulation” and the absorption ([1]; oral) was “rapidly absorbed”. For the same molecule, the “median duration of treatment in exceptional responders” value (advanced solid tumor; range 39.8–133 +) was 44.1 months, the “time on treatment of one patient with RCC” value (advanced solid tumor) was > 11 years and the ORR ([2]; PCYC-0403, mantle cell lymphoma, 3/11) was 27.3%. For the same molecule, the “median PFS” value ([2]; PCYC-0403, mantle cell lymphoma) was 3.9 months, the “CR, patients” value [2, 10] was 1 and the “PR, patients” value [2, 10] was 8. For the same molecule, the ORR ([2]; PCYC-0403, r/r FL patients, 9/14) was 64.3%, the DCR ([2]; PCYC-0403, r/r FL patients, 12/14) was 85.7% and the “median PFS” value ([2]; PCYC-0403, r/r FL patients) was 20.5 months.
